Test results taken from patent publication US20230085307A1, “PYRIDAZINONE COMPOUND AND HERBICIDE” (NISSAN CHEMICAL CORPORATION, priority 2019, published 2023).

Tests used:
lambsquarters [1] = assay: Test Example 5: herbicidal effect by foliage application, plastic box (Table 20, symbol O); format: in vivo, lambsquarters (Chenopodium album); conditions: foliage application, three weeks after application
Procedure, shortened: (§1)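 Post-emergence foliar test in sterilized diluvial soil. Compound applied as water-diluted emulsion at a predetermined rate to 14-day-old plants; evaluation at three weeks.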

velvetleaf = assay: Test Example 5: herbicidal effect by foliage application, plastic box (Table 20, symbol M); format: in vivo, velvetleaf (Abutilon theophrasti); conditions: foliage application, three weeks after application
Procedure, shortened: as §1

barnyard grass [2] = assay: Test Example 4: herbicidal effect by soil treatment (Table 19, symbol H); format: in vivo, barnyard grass (Echinochloa crus-galli)
Procedure, shortened: (§2)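 Emulsion of test compound, water-diluted to predetermined amount, sprayed on soil after sowing (seed depth ~1.5 cm, sterilized diluvial soil). Greenhouse, 25–30° C. Effect graded at three weeks post-spray.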

rice flat sedge = assay: Test Example 3: herbicidal effect by foliage application, Wagner pot (Table 18, symbol E); format: in vivo, rice flat sedge (Cyperus iria)
Procedure, shortened: (§3)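 Plants were sown in alluvial soil held under 0.1–0.5 cm standing water and grown 14 days in a greenhouse at 25–30 °C. An emulsifiable formulation, water-diluted to the set dose, was then sprayed onto the foliage, and effects were scored three weeks later using previously defined criteria.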

blackgrass [3] = assay: Test Example 5: herbicidal effect by foliage application, plastic box (Table 20, symbol J); format: in vivo, blackgrass (Alopecurus myosuroides); conditions: foliage application, three weeks after application
Procedure, shortened: as §1

chickweed = assay: Test Example 5: herbicidal effect by foliage application, plastic box (Table 20, symbol P); format: in vivo, common chickweed (Stellaria media); conditions: foliage application, three weeks after application
Procedure, shortened: as §1

wild oat = assay: Test Example 5: herbicidal effect by foliage application, plastic box (Table 20, symbol I); format: in vivo, wild oat (Avena fatua); conditions: foliage application, three weeks after application
Procedure, shortened: as §1

Japanese bulrush = assay: Test Example 2: herbicidal activity, application during weed generation under submerged conditions (Table 17, symbol B); format: in vivo, Japanese bulrush (Schoenoplectus juncoides); conditions: application during weed generation, submerged conditions
Procedure, shortened: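 Herbicide emulsion, diluted with water to the chosen amount, is applied onto 4 cm floodwater over alluvial soil where the weeds were co-sown and raised at 25–30° C. Application timing: 1–2 leaves. Assessment: three weeks afterwards.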

windgrass = assay: Test Example 5: herbicidal effect by foliage application, plastic box (Table 20, symbol L); format: in vivo, windgrass (Apera spica-venti); conditions: foliage application, three weeks after application
Procedure, shortened: as §1

Italian ryegrass [4] = assay: Test Example 4: herbicidal effect by soil treatment (Table 19, symbol K); format: in vivo, Italian ryegrass (Lolium multiflorum)
Procedure, shortened: as §2

green foxtail = assay: Test Example 4: herbicidal effect by soil treatment (Table 19, symbol G); format: in vivo, green foxtail (Setaria viridis)
Procedure, shortened: as §2

blackgrass [5] = assay: Test Example 4: herbicidal effect by soil treatment (Table 19, symbol J); format: in vivo, blackgrass (Alopecurus myosuroides)
Procedure, shortened: as §2

Italian ryegrass [6] = assay: Test Example 5: herbicidal effect by foliage application, plastic box (Table 20, symbol K); format: in vivo, Italian ryegrass (Lolium multiflorum); conditions: foliage application, three weeks after application
Procedure, shortened: as §1

barnyard grass [7] = assay: Test Example 5: herbicidal effect by foliage application, plastic box (Table 20, symbol H); format: in vivo, barnyard grass (Echinochloa crus-galli); conditions: foliage application, three weeks after application
Procedure, shortened: as §1

Chinese sprangletop = assay: Test Example 3: herbicidal effect by foliage application, Wagner pot (Table 18, symbol D); format: in vivo, chinese sprangletop (Leptochloa chinensis)
Procedure, shortened: as §3

persian speedwell = assay: Test Example 5: herbicidal effect by foliage application, plastic box (Table 20, symbol R); format: in vivo, Persian speedwell (Veronica persica); conditions: foliage application, three weeks after application
Procedure, shortened: as §1

lambsquarters [8] = assay: Test Example 4: herbicidal effect by soil treatment (Table 19, symbol O); format: in vivo, lambsquarters (Chenopodium album)
Procedure, shortened: as §2

[9] = amount of applied herbicide 304 g/ha
[10] = amount of applied herbicide 320 g/ha
[11] = amount of applied herbicide 80 g/ha

Structure (SMILES) | O: lambsquarters, herbicidal effect grade (lambsquarters [1]; 320 g/ha) | M: velvetleaf, herbicidal effect grade (velvetleaf; 320 g/ha) | H: barnyard grass, herbicidal effect grade (barnyard grass [2]; [10]) | herbicidal effect on rice flat sedge (E) (rice flat sedge; 320 g/ha) | J: blackgrass, herbicidal effect grade (blackgrass [3]; 320 g/ha) | P: chickweed, herbicidal effect grade (chickweed; 320 g/ha) | I: wild oat, herbicidal effect grade (wild oat; 320 g/ha) | herbicidal effect rating, B: Japanese bulrush (Japanese bulrush; AAH 320 g/ha) | L: windgrass, herbicidal effect grade (windgrass; 320 g/ha) | K: Italian ryegrass, herbicidal effect grade (Italian ryegrass [4]; [10]) | G: green foxtail, herbicidal effect grade (green foxtail; [10]) | J: blackgrass, herbicidal effect grade (blackgrass [5]; [10]) | K: Italian ryegrass, herbicidal effect grade (Italian ryegrass [6]; 320 g/ha) | H: barnyard grass, herbicidal effect grade (barnyard grass [7]; 320 g/ha) | herbicidal effect on Chinese sprangletop (D) (Chinese sprangletop; 320 g/ha) | R: persian speedwell, herbicidal effect grade (persian speedwell; 320 g/ha) | O: lambsquarters, herbicidal effect grade (lambsquarters [8]; [10]) | other results
CCCC(=O)Oc1c(C)nn(C)c(=O)c1-c1c(-c2ccccc2OCC)sc2cc(C)ccc12 [3-054] |  |  |  |  |  |  |  |  |  |  |  |  |  |  |  |  |  | O: lambsquarters, herbicidal effect grade (lambsquarters [1]; 304 g/ha): 4 (Herbicidal rate of 70% or more and less than 90%); M: velvetleaf, herbicidal effect grade (velvetleaf; 304 g/ha): 4 (Herbicidal rate of 70% or more and less than 90%); H: barnyard grass, herbicidal effect grade (barnyard grass [2]; [9]): 0 (Herbicidal rate of 5% or less (almost no effect)); herbicidal effect on rice flat sedge (E) (rice flat sedge; 304 g/ha): 5 (Herbicidal rate of 90% or more (almost completely withered)); J: blackgrass, herbicidal effect grade (blackgrass [3]; 304 g/ha): 4 (Herbicidal rate of 70% or more and less than 90%); P: chickweed, herbicidal effect grade (chickweed; 304 g/ha): 5 (Herbicidal rate of 90% or more (almost completely withered)); I: wild oat, herbicidal effect grade (wild oat; 304 g/ha): 5 (Herbicidal rate of 90% or more (almost completely withered)); herbicidal effect rating, B: Japanese bulrush (Japanese bulrush; AAH 304 g/ha): 3 (Herbicidal rate of 40% or more and less than 70%); L: windgrass, herbicidal effect grade (windgrass; 304 g/ha): 4 (Herbicidal rate of 70% or more and less than 90%); K: Italian ryegrass, herbicidal effect grade (Italian ryegrass [4]; [9]): 3 (Herbicidal rate of 40% or more and less than 70%); G: green foxtail, herbicidal effect grade (green foxtail; [9]): 3 (Herbicidal rate of 40% or more and less than 70%); J: blackgrass, herbicidal effect grade (blackgrass [5]; [9]): 3 (Herbicidal rate of 40% or more and less than 70%); K: Italian ryegrass, herbicidal effect grade (Italian ryegrass [6]; 304 g/ha): 5 (Herbicidal rate of 90% or more (almost completely withered)); H: barnyard grass, herbicidal effect grade (barnyard grass [7]; 304 g/ha): 4 (Herbicidal rate of 70% or more and less than 90%); herbicidal effect on Chinese sprangletop (D) (Chinese sprangletop; 304 g/ha): 3 (Herbicidal rate of 40% or more and less than 70%); R: persian speedwell, herbicidal effect grade (persian speedwell; 304 g/ha): 5 (Herbicidal rate of 90% or more (almost completely withered)); O: lambsquarters, herbicidal effect grade (lambsquarters [8]; [9]): 0 (Herbicidal rate of 5% or less (almost no effect))
COc1cc(F)ccc1-c1sc2cc(C)ccc2c1-c1c(O)c(C)nn(C)c1=O [3-055] | 5 (Herbicidal rate of 90% or more (almost completely withered)) | 5 (Herbicidal rate of 90% or more (almost completely withered)) | 0 (Herbicidal rate of 5% or less (almost no effect)) | 5 (Herbicidal rate of 90% or more (almost completely withered)) | 5 (Herbicidal rate of 90% or more (almost completely withered)) | 5 (Herbicidal rate of 90% or more (almost completely withered)) | 5 (Herbicidal rate of 90% or more (almost completely withered)) | 1 (Herbicidal rate of 5% or more and less than 20%) | 5 (Herbicidal rate of 90% or more (almost completely withered)) | 0 (Herbicidal rate of 5% or less (almost no effect)) | 0 (Herbicidal rate of 5% or less (almost no effect)) | 2 (Herbicidal rate of 20% or more and less than 40%) | 5 (Herbicidal rate of 90% or more (almost completely withered)) | 4 (Herbicidal rate of 70% or more and less than 90%) | 4 (Herbicidal rate of 70% or more and less than 90%) | 5 (Herbicidal rate of 90% or more (almost completely withered)) | 0 (Herbicidal rate of 5% or less (almost no effect)) | 
CCCC(=O)Oc1c(C)nn(C)c(=O)c1-c1c(-c2ccccc2OCC)sc2cc(OC)ccc12 [3-071] | 5 (Herbicidal rate of 90% or more (almost completely withered)) | 5 (Herbicidal rate of 90% or more (almost completely withered)) | 3 (Herbicidal rate of 40% or more and less than 70%) | 5 (Herbicidal rate of 90% or more (almost completely withered)) | 5 (Herbicidal rate of 90% or more (almost completely withered)) | 5 (Herbicidal rate of 90% or more (almost completely withered)) | 5 (Herbicidal rate of 90% or more (almost completely withered)) | 5 (Herbicidal rate of 90% or more (almost completely withered)) | 5 (Herbicidal rate of 90% or more (almost completely withered)) | 2 (Herbicidal rate of 20% or more and less than 40%) | 4 (Herbicidal rate of 70% or more and less than 90%) | 4 (Herbicidal rate of 70% or more and less than 90%) | 4 (Herbicidal rate of 70% or more and less than 90%) | 5 (Herbicidal rate of 90% or more (almost completely withered)) | 5 (Herbicidal rate of 90% or more (almost completely withered)) | 5 (Herbicidal rate of 90% or more (almost completely withered)) | 3 (Herbicidal rate of 40% or more and less than 70%) | 
CCOc1cc(F)ccc1-c1sc2cc(OC)ccc2c1-c1c(O)c(C)nn(C)c1=O [3-078] |  |  |  |  |  |  |  |  |  |  |  |  |  |  |  |  |  | O: lambsquarters, herbicidal effect grade (lambsquarters [1]; 80 g/ha): 5 (Herbicidal rate of 90% or more (almost completely withered)); M: velvetleaf, herbicidal effect grade (velvetleaf; 80 g/ha): 5 (Herbicidal rate of 90% or more (almost completely withered)); H: barnyard grass, herbicidal effect grade (barnyard grass [2]; [11]): 0 (Herbicidal rate of 5% or less (almost no effect)); herbicidal effect on rice flat sedge (E) (rice flat sedge; 80 g/ha): 5 (Herbicidal rate of 90% or more (almost completely withered)); J: blackgrass, herbicidal effect grade (blackgrass [3]; 80 g/ha): 4 (Herbicidal rate of 70% or more and less than 90%); P: chickweed, herbicidal effect grade (chickweed; 80 g/ha): 5 (Herbicidal rate of 90% or more (almost completely withered)); I: wild oat, herbicidal effect grade (wild oat; 80 g/ha): 5 (Herbicidal rate of 90% or more (almost completely withered)); herbicidal effect rating, B: Japanese bulrush (Japanese bulrush; AAH 80 g/ha): 5 (Herbicidal rate of 90% or more (almost completely withered)); L: windgrass, herbicidal effect grade (windgrass; 80 g/ha): 5 (Herbicidal rate of 90% or more (almost completely withered)); K: Italian ryegrass, herbicidal effect grade (Italian ryegrass [4]; [11]): 3 (Herbicidal rate of 40% or more and less than 70%); G: green foxtail, herbicidal effect grade (green foxtail; [11]): 0 (Herbicidal rate of 5% or less (almost no effect)); J: blackgrass, herbicidal effect grade (blackgrass [5]; [11]): 5 (Herbicidal rate of 90% or more (almost completely withered)); K: Italian ryegrass, herbicidal effect grade (Italian ryegrass [6]; 80 g/ha): 4 (Herbicidal rate of 70% or more and less than 90%); H: barnyard grass, herbicidal effect grade (barnyard grass [7]; 80 g/ha): 5 (Herbicidal rate of 90% or more (almost completely withered)); herbicidal effect on Chinese sprangletop (D) (Chinese sprangletop; 80 g/ha): 3 (Herbicidal rate of 40% or more and less than 70%); R: persian speedwell, herbicidal effect grade (persian speedwell; 80 g/ha): 5 (Herbicidal rate of 90% or more (almost completely withered)); O: lambsquarters, herbicidal effect grade (lambsquarters [8]; [11]): 4 (Herbicidal rate of 70% or more and less than 90%)
